This is an account of results in PubChem BioAssay (NCI).

“And” between values parts separate entries of the source, which are not always exact repeats. Identical values can stand only once.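 Interpolation was linear, between the two tested concentrations surrounding the appropriate level; five concentrations were tested over 48 hours in 96-well plates. Abbreviation: GI50, concentration required for 50% inhibition of growth. Definition used: TGI = concentration required for complete inhibition of growth.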 Where a SMILES comes first, the peptide text is derived from it. [ ]: non-standard residue; d: D form. The star is where a group is joined. NMeF = CN[CH](Cc1ccccc1)C(=O)O; NMeV = CN[CH](C(=O)O)C(C)C; Boc = CC(C)(C)OC(=O)*; OBn = c1ccc(CO*)cc1

Assay in all cases: inhibition of tumour cell growth, NCI panel, 48 h
For assay [1], the system named is OVCAR-3 ovarian.
In assay [2] the test system is M14 melanoma.
The test system of assay [3] is SK-MEL-2 melanoma.
In assay [4] the test system is CAKI-1 renal.
For assay [5], the system named is UACC-62 melanoma.
The subject of assay [6] is NCI-H460 lung.
The subject of assay [7] is NCI-H226 lung.
In assay [8] the test system is UACC-257 melanoma.
Assay [9] has as its system OVCAR-5 ovarian.
The subject of assay [10] is SK-MEL-28 melanoma.
In assay [11] the test system is NCI-H23 lung.
In assay [12] the test system is COLO 205 colon.
The subject of assay [13] is SF-539 CNS.

For the molecule `COCn1cc(C2=C(C)C(=O)C(C)=C(C)C2=O)cn1`, the TGI was 40 µM in assay [1]; above 100 µM in [2]; above 100 µM in assay [3]; above 100 µM in [4]; above 100 µM in assay [5]; above 100 µM in assay [6]. Besides, the TGI in assay [7], in [8], in [9], in assay [10], in [11] and in assay [12] was above 100 µM throughout. The molecule further returned a TGI in [13] above 100 µM.

Turning to `S=C1NC2=C(CSC/C2=C\c2ccc(Cl)cc2)C(c2ccc(Cl)cc2)N1` (stereo not drawn), the TGI in assay [1], in assay [3], in assay [4], in assay [5], in assay [6] and in [8] was above 100 µM throughout. The TGI in [9] was above 100 µM; in [10], above 100 µM; in assay [11], above 100 µM; in assay [12], 32.7 µM.

As to `CC1(C)CC[C@]2(C(=O)O)CC[C@]3(C)C(=CCC4=C5C[C@H](O)[C@H](O)[C@@](C)(CO)[C@@]5(C)CC[C@]43C)[C@@H]2C1`, the TGI in [1] is above 100 µM; in [2], above 100 µM; in assay [3] it was above 100 µM; in assay [4], 87.2 µM; in assay [5], above 100 µM; in assay [6] it was 81.8 µM. Moreover, the TGI is above 100 µM in assay [8]; above 100 µM in assay [9]; above 100 µM in assay [10]; above 100 µM in [11]; 30 µM in [12]; above 100 µM in assay [13].

With `CN(c1ccccc1)c1cc2ccccc2nn1`, the TGI in assay [1], in assay [2], in [3], in assay [4], in [5] and in assay [6] was above 100 µM in each case. Moreover, the TGI in [7], in [8], in assay [9], in assay [10], in assay [11] and in [12] was above 100 µM each time. In assay [13], this molecule yielded a TGI above 100 µM.

On to `C=C1CN=C(Nc2ccc(Cl)cc2)S1`, for which the TGI in assay [1] is above 100 µM; in assay [2], above 100 µM; in [3], above 100 µM; in assay [4], above 10 µM; in assay [6], above 100 µM; in assay [8] it was above 100 µM. In addition, the TGI in assay [9], in [10], in assay [11], in assay [12] and in assay [13] was above 100 µM each time.

In the case of `COC(=O)[C@@H]1CN(C(=O)CCc2ccccc2)C(=O)N1`, the TGI in assay [1], in assay [2], in assay [3], in assay [4], in [6] and in assay [7] was above 100 µM in each case. Also, the TGI in assay [8], in [9], in assay [10], in assay [11], in [12] and in assay [13] was above 100 µM each time.

Consider `C=C(C)[C@H]1CC[C@@]23O[C@@H]2[C@@H](C[C@@]2(C)CC(=O)[C@H](CC(=O)C1)O2)OC(=O)[C@@]12CC[C@H](C(=C)C)CC(=O)C[C@H]4O[C@](C)(CC4=O)C[C@@H](OC3=O)[C@@H]1O2`, for which the TGI in assay [1], in assay [2], in [3], in assay [4], in [5] and in assay [7] was above 100 µM throughout. Moreover, the TGI in [8], in assay [9], in [10], in [11], in assay [12] and in assay [13] was above 100 µM each time.

For `CCN(CC)C(=O)CCn1cc(F)c(=O)[nH]c1=O`, the TGI in assay [1], in [2], in assay [3], in assay [5], in assay [6] and in assay [7] was above 100 µM throughout. In addition, the TGI in assay [9], in assay [10], in assay [11], in assay [12] and in [13] was above 100 µM each time.

As for `COc1cccc(NC(=O)CSc2nnc(Cc3ccccc3)o2)c1`, the TGI in assay [1], in assay [2], in assay [3], in assay [4], in assay [5] and in assay [6] was above 100 µM in each case. The TGI in [7], in assay [8], in assay [9], in [10], in assay [11] and in assay [12] was above 100 µM throughout. The molecule further gave a TGI in assay [13] above 100 µM.

On to `Cn1c(=O)c2ccccc2[n+]2c(-c3cccc([N+](=O)[O-])c3)csc12`, for which the TGI in [1], in [2], in assay [3], in assay [4], in [5] and in assay [6] was above 100 µM in each case. The TGI in assay [7], in assay [8], in assay [9], in assay [10], in assay [11] and in assay [12] was above 100 µM throughout. In assay [13], this molecule came in with a TGI above 100 µM.

Regarding `CNc1cc([N+](=O)[O-])ccc1C(=O)N1CCC[C@H]1CO`, the TGI in [1], in [2], in [3], in assay [5], in [6] and in assay [7] was above 100 µM each time. In addition, the TGI in assay [8], in assay [9], in assay [10] and in assay [13] was above 100 µM each time.

With `CC(C)C(NC(=O)OC(C)(C)C)C(=O)N(C)C(Cc1ccccc1)C(=O)N(C)C(C(=O)OCc1ccccc1)C(C)C` (stereo not drawn) (Boc-Val-[NMeF]-[NMeV]-OBn; configuration not given here), the GI50 in assay [1] was 35.5 µM and > 100 µM; in assay [8], 20.5 µM and 44.3 µM; in assay [13] it was 16.4 µM and 78.4 µM. In addition, the TGI in [1], in assay [2], in assay [5], in assay [6], in assay [7] and in assay [8] was above 100 µM in each case. Moreover, the TGI in [10], in [11], in assay [12] and in assay [13] was above 100 µM throughout.

For the molecule `CNC(=O)C(C)Oc1ccc(OCC2CCCCC2)cc1` (stereo not drawn), the TGI in assay [1], in [2], in assay [3], in assay [5], in [6] and in assay [7] was above 100 µM each time. The TGI in [8], in assay [10], in assay [11] and in assay [13] was above 100 µM throughout.

`CCCCN=NNc1cn(C2OC(CO)C(O)C2O)c(=O)[nH]c1=O` (stereo not drawn): the TGI in assay [1], in assay [2], in [3], in assay [4], in assay [5] and in assay [6] was above 100 µM in each case. Moreover, the TGI in [7], in assay [8], in assay [9], in assay [10], in [11] and in assay [12] was above 100 µM throughout. For the same molecule, the TGI in assay [13] was above 100 µM.

For the molecule `Nc1nc(SCC(=O)c2ccccc2)c2[nH]cnc2n1`, the TGI in [1], in [2], in assay [3], in [4], in assay [5] and in assay [6] was above 100 µM throughout. Moreover, the TGI in assay [7], in [8], in assay [9], in assay [10], in assay [11] and in assay [12] was above 100 µM throughout. Further, the TGI in assay [13] was above 100 µM.

For `CC(=O)[O-].CC(=O)[O-].O=C(N/N=C/c1cc(Cl)cc(Cl)c1[OH2+])c1ccncc1.[Mn+2]`, the TGI in [1] is 0.956 µM; in assay [2] it was 13.6 µM; in [3], 8.38 µM; in assay [5] it was 5.54 µM; in assay [6] it was 15.8 µM; in assay [7], 12.1 µM. Further, the TGI in [8] worked out at 14.7 µM; in assay [9] it was 8.49 µM; in assay [10], 25 µM; in assay [11], 21.9 µM; in assay [12], 10.9 µM; in assay [13] it was 13.4 µM. The GI50 in assay [3] was 3.85 µM.

As for `O=C1CSC(c2ccccc2O)N1c1ccc2c(c1)Oc1c(Cl)c3c(c(Cl)c1=N2)Oc1cc(N2C(=O)CSC2c2ccccc2O)ccc1N=3` (stereo not drawn), the TGI in assay [1], in assay [2], in assay [3], in assay [4], in assay [6] and in [7] was above 100 µM throughout. Moreover, the TGI in assay [8], in [9], in [10], in [11] and in assay [13] was above 100 µM each time.

For the molecule `O[C@@]1(C#Cc2ccc3c(c2)OCO3)CCC[C@H]1NCc1ccccc1`, the TGI in [1] was 47.4 µM; in assay [2], 29.2 µM; in assay [3], 31.9 µM; in assay [4], above 100 µM; in [5], 36.4 µM; in assay [6], 69 µM. Moreover, the TGI in [7] is 51.2 µM; in assay [8], 63.9 µM; in assay [9], above 100 µM; in [10], 38.1 µM; in assay [11], above 100 µM; in assay [12], 37.4 µM. Moreover, in assay [13], the TGI stood at 39.5 µM.

Take `Cc1ccc(Nc2cccc3c2C(=O)c2cccc(Nc4ccc(C)cc4S(=O)(=O)O)c2C3=O)c(S(=O)(=O)O)c1`: the TGI in assay [1], in [2], in [3], in assay [4], in assay [5] and in assay [6] was above 100 µM each time. The TGI in assay [7], in assay [8], in [10], in assay [12] and in [13] was above 100 µM throughout.

On to `C=C(COCO)C(C)=O`, for which the TGI in assay [1] worked out at 26.6 µM; in [2] it was 26.8 µM; in assay [3], 40.5 µM; in [4], 5.42 µM; in assay [5], 32.3 µM; in assay [6], 48.2 µM. In addition, the TGI in assay [7] was above 100 µM; in assay [8], 31.1 µM; in [9], 35.3 µM; in assay [10], 32 µM; in assay [11], 35.4 µM; in [12], 20.8 µM. In addition, the TGI in [13] stood at 13.6 µM.

In the case of `CC(=O)OCC1OC(n2c(C)c(C(C)=O)c(-c3ccco3)c(C#N)c2=S)C(OC(C)=O)C(OC(C)=O)C1OC(C)=O` (stereo not drawn), the TGI in [1] is above 100 µM; in [2] it was above 100 µM; in assay [3], 98.4 µM and > 100 µM; in assay [5], above 100 µM; in assay [6] it was above 100 µM; in assay [7], above 100 µM. Besides, the TGI in assay [8], in assay [9], in [10], in assay [11], in assay [12] and in assay [13] was above 100 µM in each case. For the same molecule, the GI50 in assay [3] was 27.4 µM and 74.4 µM.
